Measured values: PMC11643494, “Structure–Activity Relationship Studies in a Series of 2-Aryloxy-N-(pyrimidin-5-yl)acetamide Inhibitors of SLACK Potassium Channels” (Molecules, 2024)

Target: T1, CaV3.2 (Homo sapiens, UniProt O95180)
T1 construct: expressed in transfected cells; host or cells: HEK293
Assay: Tl+-flux assay in HEK-293 cells, CaV3.2
Type: cell-based
Details: HEK293; 10 µM test compound; relative to control bepridil; read-out: Percent Inhibition ± SEM, CaV3.2
Excerpt: Having executed our plan to prepare analogs across the identified regions of the chemotype (Figure 2), we identified two analogs for further profiling and evaluation. […] Desiring to add a second compound with some measure of structural differences, we also chose another submicromolar SLACK inhibitor 66 (VU0936154). Whereas 40 contains an ether linker and a halogenated phenyl group in the eastern region, […] contains an N-methyl linker and a phenyl group with a more polar cyano substituent. We first screened these analogs at 10 µM versus our in-house panel of ion channel targets using Tl^+-flux assays in HEK-293 cells expressing the human target of interest. […] Included in this set are Slo family members SLICK and two isoforms of Maxi-K, as well as several different K^+, Na^+, and Ca^2+ channels (Table 6). […] Of note was the excellent selectivity versus the broader panel of targets for both compounds, including versus the hERG channel.
Stably transfected monoclonal HEK293 cell lines expressing SLICK, Maxi-K α1/β3, Maxi-K α1/β4, CaV3.2, GIRK 1/2, KV2.1, KV7.2, NaV1.7, and TASK-1 were generated as previously described. […]
The Tl^+ flux assays were conducted as previously described, with modifications optimized for individual cell lines as described below. […] Cell plates were then loaded onto a Panoptic kinetic imaging plate reader (WaveFront Biosciences, Franklin, TN, USA). […]

T1 sequence (O95180 whole entry): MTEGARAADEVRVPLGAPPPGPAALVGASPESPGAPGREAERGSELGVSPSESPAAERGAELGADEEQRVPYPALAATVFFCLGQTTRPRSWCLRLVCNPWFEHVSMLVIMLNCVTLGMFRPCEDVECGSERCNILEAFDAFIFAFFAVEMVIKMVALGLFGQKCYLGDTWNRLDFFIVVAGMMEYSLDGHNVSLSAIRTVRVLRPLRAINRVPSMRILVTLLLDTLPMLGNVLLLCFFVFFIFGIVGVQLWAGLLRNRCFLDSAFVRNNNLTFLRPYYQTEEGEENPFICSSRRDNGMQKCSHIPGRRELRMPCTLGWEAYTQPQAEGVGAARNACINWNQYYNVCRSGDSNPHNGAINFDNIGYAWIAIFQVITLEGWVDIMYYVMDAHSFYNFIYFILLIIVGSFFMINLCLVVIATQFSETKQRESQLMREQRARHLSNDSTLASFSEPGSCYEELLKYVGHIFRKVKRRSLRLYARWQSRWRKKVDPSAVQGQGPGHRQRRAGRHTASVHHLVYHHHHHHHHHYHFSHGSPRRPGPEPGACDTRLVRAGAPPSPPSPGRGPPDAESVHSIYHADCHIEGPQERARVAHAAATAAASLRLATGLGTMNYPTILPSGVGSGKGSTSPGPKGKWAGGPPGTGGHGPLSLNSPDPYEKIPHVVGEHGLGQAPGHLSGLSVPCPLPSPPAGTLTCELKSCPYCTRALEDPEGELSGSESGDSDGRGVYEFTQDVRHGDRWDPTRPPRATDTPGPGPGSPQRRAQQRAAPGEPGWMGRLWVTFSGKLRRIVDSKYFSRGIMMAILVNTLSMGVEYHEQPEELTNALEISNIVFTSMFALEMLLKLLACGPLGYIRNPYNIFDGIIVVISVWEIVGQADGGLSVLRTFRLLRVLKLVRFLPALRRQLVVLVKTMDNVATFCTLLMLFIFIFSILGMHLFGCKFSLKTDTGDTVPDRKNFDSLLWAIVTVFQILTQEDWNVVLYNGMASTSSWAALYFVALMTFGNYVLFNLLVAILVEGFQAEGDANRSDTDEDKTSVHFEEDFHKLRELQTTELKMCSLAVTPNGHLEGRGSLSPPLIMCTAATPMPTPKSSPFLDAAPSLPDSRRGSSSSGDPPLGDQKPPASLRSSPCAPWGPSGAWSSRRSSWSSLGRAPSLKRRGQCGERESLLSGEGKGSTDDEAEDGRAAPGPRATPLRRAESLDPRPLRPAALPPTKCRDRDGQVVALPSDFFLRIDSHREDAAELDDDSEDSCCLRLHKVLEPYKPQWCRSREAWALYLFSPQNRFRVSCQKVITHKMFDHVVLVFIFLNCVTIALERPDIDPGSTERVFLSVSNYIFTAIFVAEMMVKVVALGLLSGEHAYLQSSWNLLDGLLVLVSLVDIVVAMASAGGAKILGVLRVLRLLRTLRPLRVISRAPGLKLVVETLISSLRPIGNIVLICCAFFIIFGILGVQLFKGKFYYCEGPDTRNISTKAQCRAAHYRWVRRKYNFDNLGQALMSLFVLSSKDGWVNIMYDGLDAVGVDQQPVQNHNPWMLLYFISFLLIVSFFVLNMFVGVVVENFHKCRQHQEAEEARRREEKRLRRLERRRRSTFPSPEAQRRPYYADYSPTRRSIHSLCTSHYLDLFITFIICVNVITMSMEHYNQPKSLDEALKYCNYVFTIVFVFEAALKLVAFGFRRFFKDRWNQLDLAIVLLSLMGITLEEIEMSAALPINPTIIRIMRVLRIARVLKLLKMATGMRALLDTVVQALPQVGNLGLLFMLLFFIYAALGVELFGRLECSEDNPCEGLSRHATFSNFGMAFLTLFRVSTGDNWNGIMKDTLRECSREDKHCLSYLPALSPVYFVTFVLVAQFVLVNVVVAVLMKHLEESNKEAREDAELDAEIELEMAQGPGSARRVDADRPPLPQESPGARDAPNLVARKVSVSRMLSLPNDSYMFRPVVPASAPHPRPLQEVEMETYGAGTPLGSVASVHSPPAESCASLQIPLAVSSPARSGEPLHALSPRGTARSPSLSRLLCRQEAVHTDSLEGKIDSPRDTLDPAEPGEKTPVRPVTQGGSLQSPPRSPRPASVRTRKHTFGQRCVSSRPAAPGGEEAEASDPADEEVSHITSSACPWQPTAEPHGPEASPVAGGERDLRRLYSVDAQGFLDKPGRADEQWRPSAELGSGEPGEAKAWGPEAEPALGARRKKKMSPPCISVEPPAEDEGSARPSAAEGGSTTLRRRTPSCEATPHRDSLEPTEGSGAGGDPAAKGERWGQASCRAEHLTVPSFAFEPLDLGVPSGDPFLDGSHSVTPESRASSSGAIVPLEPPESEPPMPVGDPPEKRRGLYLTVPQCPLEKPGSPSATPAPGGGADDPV

CN(c1ccc(C#N)cc1)c1ncc(NC(=O)C(C)(C)Oc2ccc(Cl)cc2)cn1 [Analog 66]
inhibition at 10 µM: 32 ± 2.4%

CC(C)(Oc1ccc(Cl)cc1)C(=O)Nc1cnc(Oc2c(F)cccc2F)nc1 [Analog 40]
inhibition at 10 µM: 10 ± 0.82%
